One test concerns the target BACE1 (Homo sapiens (Human), UniProt P56817). Nature of the test: Cellular Aβ-lowering assay. It counts as cell-based. Particulars: HEK293 cells stably expressing human APP wt (APP695); Aβ40 in supernatant by ELISA after 18-20 hrs. The method, then:
Cellular Aβ-Lowering Assay: Human HEK293 cells which are stably transfected with a vector expressing a cDNA of the human APP wt gene (APP695) were used to assess the potency of the compounds in a cellular assay. The cells were seeded in 96-well microtiter plates in cell culture medium (Iscove, plus 10% (v/v) fetal bovine serum, glutamine, penicillin/streptomycin) to about 80% confluence and the compounds were added at a 10× concentration in 1/10 volume of medium without FCS containing 8% DMSO (final concentration of DMSO was kept at 0.8% v/v). After 18-20 hrs incubation at 37° C. and 5% CO2 in a humidified incubator the culture supernatant was harvested for the determination of Aβ40 concentrations. […] After blocking of non-specific binding sites with e.g. 1% BSA and washing, the culture supernatants were added in suitable dilutions together with a horseradish peroxidase-coupled Aβ detection antibody (e.g., antibody 4G8, Senetek, Maryland Heights, Mo.) and incubated for 5 to 7 hrs. Subsequently the wells of the microtiter plate were washed extensively with Tris-buffered saline containing 0.05% Tween 20 and the assay was developed with tetramethylbenzidine/H2O2 in citric acid buffer. After stopping the reaction with one volume […] the reaction was measured in an ELISA reader at 450 nm wavelength. The concentrations of Aβ in the culture supernatants were calculated from a standard curve obtained with known amounts of pure Aβ peptide.

A further test deals with BACE2 (Rattus norvegicus (Rat), UniProt Q6IE75). Kind of test: Assay for BACE inhibition by measuring cellular TMEM27 cleavage. The class given is cell-based. To be noted: INS-TMEM27 (INS1e rat cell line, inducible hTMEM27); shed TMEM27 by ELISA. From the text:
Assay for BACE Inhibition by Measuring Cellular TMEM27 Cleavage:
The assay uses the principle of inhibition of human TMEM27 cleavage by endogenous cellular BACE2 in the Ins1e rat cell line and shedding from the cell surface into the culture medium, followed by detection in an ELISA assay Inhibition of BACE2 prevents the cleavage and shedding in a dose-dependent manner.
The stable cell line “INS-TMEM27” represents an INS1e-derived cell line with inducible expression (using the TetOn system) of full-length hTMEM27 in a doxycycline-dependent manner. The cells are cultured throughout the experiment in RPMI1640+Glutamax (Invitrogen) Penicillin/Streptomycin, 10% Fetal bovine serum, […], […], 100 micrograms/ml G418 and 100 microgram/ml hygromycin and are grown inadherent culture at 37° C. in a standard CO2 cell culture incubator.
INS-TMEM27 cells are seeded in 96-well plates. After 2 days in culture, BACE2 inhibitor is added in a range of concentrations as required by the assay and after a further two hours, doxycycline is added to a final concentration of 500 ng/ml. The cells are incubated for a further 46 hours and the supernatant harvested for detection of shed TMEM27.
An ELISA assay (using a pair of mouse anti-human-TMEM27 antibodies, raised against the extracellular domain of TMEM27) is used for detection of TMEM27 in the culture medium. An EC50 for BACE2 inhibition is calculated using the ELISA readout for each inhibitor concentration with standard curve-fitting software such as XLFit for the Excel spreadsheet program.
On the technique in general: In an ELISA, binding on a coated surface is turned into a signal by an enzyme label.

Each structure is given as a SMILES string. pIC50: −log10 of the molar value.

Sequence of BACE2 (Q6IE75 63-514): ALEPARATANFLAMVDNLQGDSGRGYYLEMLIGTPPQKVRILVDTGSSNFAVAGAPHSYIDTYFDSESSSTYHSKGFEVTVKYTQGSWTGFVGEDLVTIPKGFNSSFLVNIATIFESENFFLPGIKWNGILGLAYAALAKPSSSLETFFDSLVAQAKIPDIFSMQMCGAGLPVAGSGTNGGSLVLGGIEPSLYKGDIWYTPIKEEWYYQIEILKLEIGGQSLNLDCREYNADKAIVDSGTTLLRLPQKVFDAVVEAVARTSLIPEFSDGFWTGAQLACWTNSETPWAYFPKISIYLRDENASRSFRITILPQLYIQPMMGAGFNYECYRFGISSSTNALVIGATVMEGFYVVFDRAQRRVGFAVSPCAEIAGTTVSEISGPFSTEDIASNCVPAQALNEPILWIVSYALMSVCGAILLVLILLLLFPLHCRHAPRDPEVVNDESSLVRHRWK
Sequence of BACE1 (P56817 46-501): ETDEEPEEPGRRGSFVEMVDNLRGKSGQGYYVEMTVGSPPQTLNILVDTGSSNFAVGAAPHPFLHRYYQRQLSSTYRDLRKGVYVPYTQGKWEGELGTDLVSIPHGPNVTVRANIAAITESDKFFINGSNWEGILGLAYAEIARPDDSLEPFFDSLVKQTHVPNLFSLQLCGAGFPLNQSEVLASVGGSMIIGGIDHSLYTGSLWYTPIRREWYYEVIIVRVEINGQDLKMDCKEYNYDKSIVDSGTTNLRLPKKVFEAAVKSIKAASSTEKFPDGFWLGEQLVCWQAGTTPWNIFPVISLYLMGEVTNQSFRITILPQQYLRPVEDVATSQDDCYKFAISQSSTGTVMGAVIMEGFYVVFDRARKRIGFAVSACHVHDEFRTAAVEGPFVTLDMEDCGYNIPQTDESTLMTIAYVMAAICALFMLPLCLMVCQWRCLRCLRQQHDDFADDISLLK

Regarding `C[C@]1(F)COC(N)=N[C@]1(C)c1cc(NC(=O)c2ccc(C#N)cn2)ccc1F` [Example 38, 5-Cyano-pyridine-2-carboxylic acid [3-((4R,5R)-2-amino-5-fluoro-4,5-dimethyl-5,6-dihydro-4H-[1,3]oxazin-4-yl)-4-fluoro-phenyl]-amide], the values for the negative logarithm of the IC50 (pIC50) against BACE1 and on BACE2 were 9.40 and 7.64, respectively.

`C[C@]1(c2cc(NC(=O)c3ccc(OCC(F)(F)C(F)F)cn3)ccc2F)N=C(N)OC[C@@H]1F` [Example 24, 5-(2,2,3,3-Tetrafluoro-propoxy)-pyridine-2-carboxylic acid [3-((4R,5R)-2-amino-5-fluoro-4-methyl-5,6-dihydro-4H-[1,3]oxazin-4-yl)-4-fluoro-phenyl]-amide]: the pIC50 – broadly, the negative decadic logarithm of the IC50, by convention in mol/L – against BACE1 was 7.77.

For the molecule `C[C@]1(c2cc(NC(=O)c3ccc(F)cn3)ccc2F)N=C(N)OC[C@@H]1F` [Example 20, 5-Fluoro-pyridine-2-carboxylic acid [3-((4R,5R)-2-amino-5-fluoro-4-methyl-5,6-dihydro-4H-[1,3]oxazin-4-yl)-4-fluoro-phenyl]-amide], the pIC50 was 8.00 against BACE1 and 8.15 on BACE2.

In the case of `Cc1cc(C(=O)Nc2ccc(F)c([C@@]3(C)N=C(N)OC[C@@H]3F)c2)c(C)o1` [Example 18, 2,5-Dimethyl-furan-3-carboxylic acid [3-((4R,5R)-2-amino-5-fluoro-4-methyl-5,6-dihydro-4H-[1,3]oxazin-4-yl)-4-fluoro-phenyl]-amide], the negative logarithm of the IC50 (pIC50) is 8.10 on BACE1 and 7.70 at BACE2.

As to `C[C@]1(F)COC(N)=N[C@]1(C)c1cc(NC(=O)c2ncccc2OCC(F)(F)F)ccc1F` [Example 37, 3-(2,2,2-Trifluoro-ethoxy)-pyridine-2-carboxylic acid [3-((4R,5R)-2-amino-5-fluoro-4,5-dimethyl-5,6-dihydro-4H-[1,3]oxazin-4-yl)-4-fluoro-phenyl]-amide], the figures for the negative logarithm of the IC50 (pIC50) against BACE1 and at BACE2 were 7.66 and 6.65, respectively.

As for `Cn1nc(C(F)(F)F)cc1C(=O)Nc1ccc(F)c([C@@]2(C)N=C(N)OC[C@@H]2F)c1` [Example 27, 2-Methyl-5-trifluoromethyl-2H-pyrazole-3-carboxylic acid [3-((4R,5R)-2-amino-5-fluoro-4-methyl-5,6-dihydro-4H-[1,3]oxazin-4-yl)-4-fluoro-phenyl]-amide], the results for the pIC50 on BACE1 and against BACE2 were 7.05 and 6.15, respectively.

Consider `C[C@]1(c2cc(NC(=O)c3ccc(C#CC4CC4)cn3)ccc2F)N=C(N)OC[C@@H]1F` [Example 14, 5-Cyclopropylethynyl-pyridine-2-carboxylic acid [3-((4R,5R)-2-amino-5-fluoro-4-methyl-5,6-dihydro-4H-[1,3]oxazin-4-yl)-4-fluoro-phenyl]-amide], for which the results for the pIC50 against BACE1 and against BACE2 were 8.40 and 8.05, respectively.

On to `C[C@]1(c2cc(NC(=O)c3ncc(C#N)cc3Cl)ccc2F)N=C(N)OC[C@H]1F` [Example 35, 3-Chloro-5-cyano-pyridine-2-carboxylic acid [3-((4R,5S)-2-amino-5-fluoro-4-methyl-5,6-dihydro-4H-[1,3]oxazin-4-yl)-4-fluoro-phenyl]-amide], for which the values for the pIC50 against BACE1 and at BACE2 were 7.09 and 6.29, respectively.

`C[C@]1(c2cc(NC(=O)c3ncc(C(F)(F)F)cc3F)ccc2F)N=C(N)OC[C@@H]1F` [Example 12, 3-Fluoro-5-trifluoromethyl-pyridine-2-carboxylic acid [3-((4R,5R)-2-amino-5-fluoro-4-methyl-5,6-dihydro-4H-[1,3]oxazin-4-yl)-4-fluoro-phenyl]-amide] gave a pIC50 at BACE1 of 8.40.

Take `Cc1cc(C(=O)Nc2ccc(F)c([C@@]3(C)N=C(N)OC[C@@H]3F)c2)nn1C` [Example 30, 1,5-Dimethyl-1H-pyrazole-3-carboxylic acid [3-((4R,5R)-2-amino-5-fluoro-4-methyl-5,6-dihydro-4H-[1,3]oxazin-4-yl)-4-fluoro-phenyl]-amide]: at BACE1, the pIC50 is 6.12.

The molecule `C[C@]1(c2cc(NC(=O)c3ccc(OCC(F)(F)C(F)(F)F)cn3)ccc2F)N=C(N)OC[C@@H]1F` [Example 25, 5-(2,2,3,3,3-Pentafluoro-propoxy)-pyridine-2-carboxylic acid [3-((4R,5R)-2-amino-5-fluoro-4-methyl-5,6-dihydro-4H-[1,3]oxazin-4-yl)-4-fluoro-phenyl]-amide] had a pIC50 against BACE1 of 7.28.

As for `C[C@]1(c2cc(NC(=O)c3ccc(OCC(F)F)cn3)ccc2F)N=C(N)OC[C@@H]1F` [Example 21, 5-(2,2-Difluoro-ethoxy)-pyridine-2-carboxylic acid [3-((4R,5R)-2-amino-5-fluoro-4-methyl-5,6-dihydro-4H-[1,3]oxazin-4-yl)-4-fluoro-phenyl]-amide], on BACE1, the pIC50 is 7.89.

The molecule `C[C@]1(c2cc(NC(=O)c3ccc(Cl)cn3)ccc2F)N=C(N)OC[C@H]1F` [Example 34, 5-Chloro-pyridine-2-carboxylic acid [3-((4R,5S)-2-amino-5-fluoro-4-methyl-5,6-dihydro-4H-[1,3]oxazin-4-yl)-4-fluoro-phenyl]-amide] gave a pIC50 at BACE1 of 7.38.

On BACE1, `C[C@]1(c2cc(NC(=O)c3cncs3)ccc2F)N=C(N)OC[C@@H]1F` [Example 29, Thiazole-5-carboxylic acid [3-((4R,5R)-2-amino-5-fluoro-4-methyl-5,6-dihydro-4H-[1,3]oxazin-4-yl)-4-fluoro-phenyl]-amide] had a pIC50 of 6.60.

`C[C@]1(c2cc(NC(=O)c3ccc(OCC(F)(F)F)cn3)ccc2F)N=C(N)OC[C@@H]1OCC(F)(F)F` [Example 49, 5-(2,2,2-Trifluoro-ethoxy)-pyridine-2-carboxylic acid {3-[(4R,5R)-2-amino-4-methyl-5-(2,2,2-trifluoro-ethoxy)-5,6-dihydro-4H-[1,3]oxazin-4-yl]-4-fluoro-phenyl}-amide] had a pIC50 on BACE1 of 7.68.

Turning to `C[C@]1(c2cc(NC(=O)C3CC3)ccc2F)N=C(N)OC[C@@H]1F` [Example 32, Cyclopropanecarboxylic acid [3-((4R,5R)-2-amino-5-fluoro-4-methyl-5,6-dihydro-4H-[1,3]oxazin-4-yl)-4-fluoro-phenyl]-amide], the pIC50 against BACE1 was 6.14. Compared with the last molecule, the pIC50 is 1.54 log units lower.

Take `C[C@]1(c2cc(NC(=O)C3(C#N)CC3)ccc2F)N=C(N)OC[C@@H]1F` [Example 31, 1-Cyano-cyclopropanecarboxylic acid [3-((4R,5R)-2-amino-5-fluoro-4-methyl-5,6-dihydro-4H-[1,3]oxazin-4-yl)-4-fluoro-phenyl]-amide]: on BACE1, the pIC50 is 7.12.

Turning to `C[C@]1(c2cc(NC(=O)c3ccc(OCC4CC4)cn3)ccc2F)N=C(N)OC[C@@H]1F` [Example 23, 5-Cyclopropylmethoxy-pyridine-2-carboxylic acid [3-((4R,5R)-2-amino-5-fluoro-4-methyl-5,6-dihydro-4H-[1,3]oxazin-4-yl)-4-fluoro-phenyl]-amide], the pIC50 against BACE1 is 7.82.

For `C[C@]1(c2cc(NC(=O)c3cnc(OCF)cn3)ccc2F)N=C(N)OC[C@@H]1F` [Example 10, 5-Fluoromethoxy-pyrazine-2-carboxylic acid [3-((4R,5R)-2-amino-5-fluoro-4-methyl-5,6-dihydro-4H-[1,3]oxazin-4-yl)-4-fluoro-phenyl]-amide], at BACE1, the pIC50 was 7.62.

For the molecule `CC#CCOc1cnc(C(=O)Nc2ccc(F)c([C@@]3(C)N=C(N)OC[C@]3(C)F)c2)cn1` [Example 50, 5-But-2-ynyloxy-pyrazine-2-carboxylic acid [3-((4R,5R)-2-amino-5-fluoro-4,5-dimethyl-5,6-dihydro-4H-[1,3]oxazin-4-yl)-4-fluoro-phenyl]-amide], at BACE1, the negative logarithm of the IC50 (pIC50) was 10.00.

As to `C[C@]1(c2cc(NC(=O)c3cnc(OCC(F)F)cn3)ccc2F)N=C(N)OC[C@@H]1F` [Example 19, 5-(2,2-Difluoro-ethoxy)-pyrazine-2-carboxylic acid [3-((4R,5R)-2-amino-5-fluoro-4-methyl-5,6-dihydro-4H-[1,3]oxazin-4-yl)-4-fluoro-phenyl]-amide], the pIC50 against BACE1 was 8.10. This pIC50 lies 1.90 log units lower than the previous one.

Take `C[C@]1(c2cc(NC(=O)c3ccc(OC(F)F)cn3)ccc2F)N=C(N)OC[C@@H]1F` [Example 6, 5-Difluoromethoxy-pyridine-2-carboxylic acid [3-((4R,5R)-2-amino-5-fluoro-4-methyl-5,6-dihydro-4H-[1,3]oxazin-4-yl)-4-fluoro-phenyl]-amide]: on BACE1, the pIC50 is 8.70.

These data come from patent US8754075B2, “1,3-oxazines as BACE1 and/or BACE2 inhibitors” (Hoffmann-La Roche Inc., priority 2011, dated 2014).
